Patent US4495195A, “Xanthine oxidase inhibiting 3(5)-phenyl-substituted-5(3)-pyrazole-carboxylic acid derivatives, compositions, and methods of use” (Eli Lilly and Company, priority 1982, dated 1985)
Read-outs that look alike come from different tables or passages of the source.

Assays:
xanthine oxidase [1] = target: T1, xanthine oxidase (Bos taurus, UniProt P80457); assay: in vitro xanthine oxidase assay (rate of uric acid formation from xanthine); format: biochemical
T1 construct: purchased Sigma Chemical Company, St. Louis, Missouri
Protocol: Xanthine oxidase activity was measured at room temperature by the rate of uric acid formation from xanthine substrate. In a total volume of 1 ml., the incubation mixture contained 50 micromoles of potassium phosphate buffer at pH 7.4, 0.05 micromoles of xanthine and 0.01 units of enzyme preparation (chromatographically purified milk xanthine oxidase, grade III, obtained from Sigma Chemical Company, St. Louis, Missouri). The absorbence change at 292 nm was recored by a Gilford recording spectrophotometer and the uric acid formed was calculated using an extinction coefficient of 12 mM^-1 cm^-1 at 292 nm.

oral LD50 in mice = conditions: mouse, in vivo; for selectivity ratio: LD50 oral mice / ED50 oral rats; for LD50: oral, mice, with standard error, read-out: LD50 (dose which kills one-half of the animals)
From the text: The compounds represented by the above formula are also relatively non-toxic. In column 3 of Table IV are listed the oral LD50 for mice in mg. per kg. (with standard error) for each of the compounds of column 1 (dose which kills one-half of the animals). Finally, column 4 in Table IV gives the ratio of LD50 to ED50. It will be seen that the ratio of the LD50 to the ED50 is quite high, giving a substantial margin of safety for using the compounds of formulas Ia, Ib, and Ic in treating gout in mammals, particularly humans.

[2] = tested on: plasma level of uric acid; assay: in vivo lowering of plasma uric acid, oral, rats; conditions: Rattus norvegicus, read-out: ED50 (dose which reduces plasma level of uric acid by one-half)
Protocol: (§1) Compounds corresponding to formulas Ia, Ib and Ic above are active in vivo in lowering plasma uric acid levels. […] The first method, the spectrofluorometric method, was modified from the precedure of Sumi et al., Clinica. Chimica. Acta., 73, 233 (1976). Rats were sacrificed by decapitation and their blood collected into vacutainer tubes containing heparin via heparinized glass funnels. The blood was centrifuged for 8 minutes at 4000 rpm after which time the plasma was separated and diluted 1:1 with water. Plasma protein was precipitated by addition of acetic acid to a final concentration of 0.007 molar and boiling the resulting mixture for 5 minutes in Sorval tubes. Clear deprotein plasma was obtained after centrifugation of the resulting plasma for 30 minutes at 25,000 rpm. Uric acid was assayed as follows: 0.2 ml. aliquots of the clear deproteinized plasma were mixed with 120 λ of uricase (0.045 mu/ml.) and incubated for 30 minutes at 27° C. 1.0 ml. of a p-hydroxyphenylacetic acid buffer was added. Samples obtained from feeding rats or dogs serial doses of the compound under test were incubated with the above buffer solution for 30 minutes at 27° C. Fluoroescence of the solution was measured in quartz tubes using an Aminco Bowman-Spectrofluorimeter having excitation of 321 nm and emission at 412 nm. Five uric acid standards from 6-30 micromolar were assayed for each test and each standard yielded a linear curve.
The second method is called the HPLC-EC Detection method. In this procedure, blood plasma was collected from rats as described above and from dogs in heparinized syringes from the cefalic vein in the forearm. The blood plasma was centrifuged with Sure-Sep to separate plasma. Deproteinized plasma was prepared in each instance by first diluting one volume of plasma with one volume of an internal standard solution, 4 mcg./ml., and then addition of two volumes of 5% trichloroacetic acid. Standards were added to control plasma in the range of 0-8 mcg./ml. of uric acid. Samples obtained by feeding graded doses of the drug under test to dogs or rats were mixed for 30 seconds and then centrifuged in an Eppendorf microcentrifuge. Supernates were diluted 1:10 in column buffer and assayed for uric acid. Internal standards used were 3-methyluric acid for the rat samples and 3,9-dimethyluric acid for dog samples. Assays were performed as follows using a Bioanlaytic Systems Inc. LC-44 analyser and an electrochemical detector system based on an Altex model 110 pump coupled with a CP-O carbon paste electrodetector. […] Uric acid levels were then calculated from peak areas by computer analysis. […]

xanthine oxidase [3] = assay: oral administration in rats, in vivo inhibition of xanthine oxidase (Table V); design: species or system rat
Protocol: as §1, with “Samples obtained from feeding rats or dogs serial doses of the compound under test were incubated with the above buffer solution for 30 minutes at 27° C.” left out, “Five uric acid standards from 6-30 micromolar were assayed for each test and each standard yielded a linear curve.” left out
The second method is called the HPLC-EC Detection method. […] Uric acid levels were then calculated from peak areas by computer analysis. […]

[4] = milk xanthine oxidase, 0.05 micromoles xanthine in 1 ml, pH 7.4, room temperature, read-out: I50 (concentration of drug which inhibits 50% of the oxidation of xanthine to uric acid) (converted)

T1 sequence (P80457 whole entry): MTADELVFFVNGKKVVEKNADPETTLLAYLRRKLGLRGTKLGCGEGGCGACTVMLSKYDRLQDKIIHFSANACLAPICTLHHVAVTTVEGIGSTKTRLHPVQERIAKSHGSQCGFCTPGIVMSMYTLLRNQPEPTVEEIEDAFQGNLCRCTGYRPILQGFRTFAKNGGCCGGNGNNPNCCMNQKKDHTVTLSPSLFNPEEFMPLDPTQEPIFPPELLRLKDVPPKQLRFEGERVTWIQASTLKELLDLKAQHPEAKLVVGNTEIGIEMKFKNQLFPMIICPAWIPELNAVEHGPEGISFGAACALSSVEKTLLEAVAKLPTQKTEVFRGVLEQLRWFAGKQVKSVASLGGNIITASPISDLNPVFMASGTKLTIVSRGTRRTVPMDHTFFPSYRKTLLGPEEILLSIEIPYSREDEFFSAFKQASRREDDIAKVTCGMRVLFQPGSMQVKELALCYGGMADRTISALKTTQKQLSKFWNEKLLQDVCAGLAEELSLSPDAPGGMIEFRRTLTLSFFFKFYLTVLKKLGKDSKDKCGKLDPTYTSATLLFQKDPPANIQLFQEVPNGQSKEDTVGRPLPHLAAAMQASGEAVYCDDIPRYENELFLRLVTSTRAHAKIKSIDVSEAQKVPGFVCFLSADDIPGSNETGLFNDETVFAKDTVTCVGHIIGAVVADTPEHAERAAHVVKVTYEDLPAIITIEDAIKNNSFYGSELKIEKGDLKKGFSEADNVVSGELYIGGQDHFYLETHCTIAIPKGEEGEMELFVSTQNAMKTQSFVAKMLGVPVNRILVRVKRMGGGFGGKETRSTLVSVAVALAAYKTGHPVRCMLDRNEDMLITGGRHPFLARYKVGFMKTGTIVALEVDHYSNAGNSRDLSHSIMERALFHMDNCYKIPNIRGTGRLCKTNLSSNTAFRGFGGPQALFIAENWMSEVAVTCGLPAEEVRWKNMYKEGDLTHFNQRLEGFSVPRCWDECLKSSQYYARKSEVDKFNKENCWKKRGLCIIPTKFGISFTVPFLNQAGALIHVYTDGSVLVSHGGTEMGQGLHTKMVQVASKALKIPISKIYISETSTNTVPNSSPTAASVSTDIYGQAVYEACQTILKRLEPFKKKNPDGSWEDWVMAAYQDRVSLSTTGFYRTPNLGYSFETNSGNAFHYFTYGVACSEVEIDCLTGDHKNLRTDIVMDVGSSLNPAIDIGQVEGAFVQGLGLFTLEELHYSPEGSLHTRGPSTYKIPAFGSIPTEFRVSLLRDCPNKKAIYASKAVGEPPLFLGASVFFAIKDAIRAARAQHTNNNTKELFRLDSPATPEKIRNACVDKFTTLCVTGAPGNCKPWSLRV

IC50 (xanthine oxidase [1]; [4]) | Compound | other results
177 nM | Cn1nc(-c2ccc(Cl)c(Cl)c2)cc1C(=O)O [R=3-Cl, R^1=4-Cl, 1-Methyl-3-(3,4-dichlorophenyl)pyrazole-5-carboxylic acid] | 
304 nM | Cn1nc(-c2cccc(Cl)c2)cc1C(=O)O [R=3-Cl, R^1=H, 1-Methyl-3-(3-chlorophenyl)pyrazole-5-carboxylic acid] | 
244 nM | COc1ccc(-c2cc(C(=O)O)n(C)n2)cc1OC [R=3-OCH3, R^1=4-OCH3, 1-Methyl-3-(3,4-dimethyoxyphenyl)pyrazole-5-carboxylic acid] | 
416 nM | Cn1nc(-c2ccc(Br)cc2)cc1C(=O)O [R=4-Br, R^1=H, 1-methyl-3-(4-bromophenyl)pyrazole-5-carboxylic acid] | 
426 nM | Cn1nc(-c2ccc(C(F)(F)F)cc2)cc1C(=O)O [R=4-CF3, R^1=H, 1-methyl-3-(4-trifluoromethylphenyl)pyrazole-5-carboxylic acid] | 
1690 nM | Cn1nc(-c2ccc(Cl)cc2)cc1C(=O)O [R=4-Cl, R^1=H, 1-Methyl-3-(4-chlorophenyl)pyrazole-5-carboxylic acid] | 
1580 nM | O=C(O)c1[nH]nc(-c2ccc(F)cc2)c1O [R=4-F, X=OH] | 
310 nM | COc1ccc(-c2cc(C(=O)O)n(C)n2)cc1 [R=4-OCH3, R^1=H, 1-Methyl-3-(4-methoxyphenyl)pyrazole-5-carboxylic acid] | 
726 nM | COc1ccc(-c2n[nH]c(C(=O)O)c2O)cc1 [R=4-OMe, X=OH] | 
66.5 nM | Cn1nc(-c2cccc(Br)c2)c(Cl)c1C(=O)O [R=Br, X=Cl, 1-Methyl-3-(3-bromophenyl)-4-chloropyrazole-5-carboxylic acid] | 
30.2 nM | Cn1nc(-c2cccc(C(F)(F)F)c2)c(N)c1C(=O)O [R=CF3, X=NH2, 1-Methyl-3-(3-trifluoromethylphenyl)-4-aminopyrazole-5-carboxylic acid] | ED50 [2]: 23 mg/kg
28 nM | Cn1nc(-c2cccc(C(F)(F)F)c2)c(O)c1C(=O)O [R=CF3, X=OH, 1-methyl-3-(3-trifluoromethylphenyl)-4-hydroxypyrazole-5-carboxylic acid] | 

Second part, the compound before the results:

Compound | IC50 (xanthine oxidase [1]; [4]) | other results
Cn1nc(-c2cccc(Br)c2)cc1C(=O)O [R=3-Br, R^1=H, 1-Methyl-3-(3-bromophenyl)pyrazole-5-carboxylic acid] | 71.1 nM | 
Cn1nc(-c2cccc(C(F)(F)F)c2)cc1C(=O)O [R=3-CF3, R^1=H, 1-methyl-3-(3-trifluoromethylphenyl)pyrazole-5-carboxylic acid] | 25.9 nM | selectivity ratio (oral LD50 in mice): 19.5; LD50 (oral LD50 in mice): 585 ± 45 mg/kg; ED50 [2]: 30 mg/kg
O=C(O)c1cc(-c2cccc(C(F)(F)F)c2)n[nH]1 [R=3-CF3, X=H, 3(5)-(3-trifluoromethylphenyl)pyrazole-5(3)-carboxylic acid] | 390 nM | 
O=C(O)c1[nH]nc(-c2cccc(C(F)(F)F)c2)c1O [R=3-CF3, X=OH, 3(5)-(3-Trifluoromethylphenyl)-4-hydroxypyrazole-5(3)-carboxylic acid] | 44.8 nM | 
Cc1cccc(-c2cc(C(=O)O)n(C)n2)c1 [R=3-CH3, R^1=H, 1-Methyl-3-(m-tolyl)pyrazole-5-carboxylic acid] | 1390 nM | 
Cn1nc(-c2cccc(C(F)(F)F)c2)c(Br)c1C(=O)O [R=CF3, X=Br, 1-methyl-3-(3-trifluoromethylphenyl)-4-bromopyrazole-5-carboxylic acid] | 57.3 nM | selectivity ratio (oral LD50 in mice): 27 to 45; LD50 (oral LD50 in mice): 300 to 500 mg/kg; ED50 [2]: 11 mg/kg
Cn1nc(-c2cccc(C(F)(F)F)c2)c(Cl)c1C(=O)O [R=CF3, X=Cl, 1-Methyl-3-(3-trifluoromethylphenyl)-4-chloropyrazole-5-carboxylic acid] |  | selectivity ratio (oral LD50 in mice): 38; LD50 (oral LD50 in mice): 322 ± 38 mg/kg; IC50 (xanthine oxidase [1]): 46 nM; ED50 [2]: 8.5 mg/kg
Cn1nc(-c2cccc(C(F)(F)F)c2)cc1C(N)=O [R=NH2] |  | Oral Percent Inhibition (xanthine oxidase [3]; dosage 90 mg·kg): 23.5%
COC(=O)c1cc(-c2cccc(C(F)(F)F)c2)nn1C [R=OCH3, methyl 1-methyl-3-(3-trifluoromethylphenyl)pyrazole-5-carboxylate] |  | Oral Percent Inhibition (xanthine oxidase [3]; dosage 24 mg·kg): 50%
